In patent US20250206732A1, “COMPOUNDS AND METHODS FOR THE TARGETED DEGRADATION OF KRAS” (Arvinas Operations, Inc., priority 2022, published 2025) one finds Dmax and DC50 data, which are given here for ten compounds.

The target in the assay is T1, AsPC-1 HiBiT-KRASG12D (Homo sapiens, UniProt P01116, G12D).
T1 construct: insert the HiBiT tag onto the N-terminus of one or more of the endogenous KRAS alleles; endogenous in cells; host or cells: AsPC-1 (ATCC CRL-1682), CRISPR-Cas9 knock-in clone, one tagged allele
Put plainly: HiBiT degradation assay (G12D), AsPC-1 HiBiT-KRASG12D cells. The settings on record: 24 hours treatment; for Dmax: ASPC1, AsPC-1 HiBiT-KRASG12D cells, maximum degradation observed; for DC50: AsPC-1 HiBiT-KRASG12D cells, HiBiT luminescence. The class given is cell-based. An excerpt: Reagents. […] SW1573 cells are homozygous for the G12C mutation in KRAS, AsPC-1 cells are homozygous for the G12D mutation, and SW620 cells are homozygous for the G12V mutation. […] For degradation assays, 384 well plates were used. Alamar blue was purchased from ThermoFisher scientific (A50101) and used according to manufacturer instructions. The Nano-Glo® HiBiT Lytic Detection System and Nano-Glo® HiBiT Blotting System were purchased from Promega (#N3050 and #N2410) and used according to manufacturer instructions.
To create the AsPC-1 HiBiT-KRASG12D cell line, CRISPR-Cas9 was used to insert the HiBiT tag onto the N-terminus of one or more of the endogenous KRAS alleles. […] After knock-in of the tag, individual clones were isolated by single cell dilution and screened for HiBiT insertion by PCR. […] This clone was used in further studies.
HiBiT degradation assays (G12C and G12D). […] All assays were performed in triplicate. Cells were treated with compounds for 24 hours at 37° C. in an incubator containing 5% CO2. Following treatment, alamar blue was used to determine if any compounds led to a loss in cell viability after 24 hours. The 10× alamar blue reagent was added to a final concentration of 1× as recommended by the manufacturer and cells were returned to the incubator for 4 hours. Plates were then allowed to equilibrate to room temperature and fluorescence was measured using a Perkin-Elmer EnVision. After completion of the fluorescence read, the liquid from each well was removed and the cells were washed with PBS. The Nano-Glo® HiBiT detection reagent was prepared according to the manufacturer's instructions and added to each well after the PBS wash was removed. Following incubation at room temperature for 45 minutes, the luminescence was read using the ultra-sensitive luminescence aperture on the Envision instrument.
Data analysis. Fluorescence values from the alamar blue treatment were normalized to the DMSO-only control for each compound titration.

T1 sequence (P01116 1-188 isoform P01116-2 G12D): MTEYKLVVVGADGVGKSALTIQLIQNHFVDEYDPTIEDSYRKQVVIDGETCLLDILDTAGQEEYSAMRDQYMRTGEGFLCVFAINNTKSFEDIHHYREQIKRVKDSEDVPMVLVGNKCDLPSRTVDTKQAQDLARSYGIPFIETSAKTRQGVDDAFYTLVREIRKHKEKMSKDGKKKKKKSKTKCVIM

As a reminder, the Dmax is the largest share of the target that was removed. By DC50 is commonly meant the midpoint of the concentration-degradation curve. `C#Cc1c(F)ccc2cc(O)cc(-c3ncc4c(N5CC6CCC(C5)N6)nc(OCCN5CCC6(CC5)CN(c5cc([C@@H](C(=O)N7C[C@H](O)C[C@H]7C(=O)N[C@@H](C)c7ccc(-c8ccnn8C)cc7)C(C)C)on5)C6)nc4c3F)c12` (relative stereo) [Compound 84, (2S,4R)-1-[(2R*)-2-[3-(7-{2-[(4-{3,8-diazabicyclo[3.2.1]octan-3-yl}-7-(8-ethynyl-7-fluoro-3-hydroxynaphthalen-1-yl)-8-fluoropyrido[4,3-d]pyrimidin-2-yl)oxy]ethyl}-2,7-diazaspiro[3.5]nonan-2-yl)-1,2-oxazol-5-yl]-3-methylbutanoyl]-4-hydroxy-N-[(1S)-1-[4-(1-methyl-1H-pyrazol-5-yl)phenyl]ethyl]pyrrolidine-2-carboxamide] gave a Dmax of 60 to 80% and a DC50 of 1000 to 3000 nM.
For `C#Cc1c(F)ccc2cc(O)cc(-c3ncc4c(N5CC6CCC(C5)N6)nc(OCCN5CCC(COc6cc([C@H](C(=O)N7C[C@H](O)C[C@H]7C(=O)N[C@@H](C)c7ccc(-c8ccnn8C)cc7)C(C)C)on6)CC5)nc4c3F)c12` (relative stereo) [Compound 85, (2S,4R)-1-[(2R*)-2-{3-[(1-{2-[(4-{3,8-diazabicyclo[3.2.1]octan-3-yl}-7-(8-ethynyl-7-fluoro-3-hydroxynaphthalen-1-yl)-8-fluoropyrido[4,3-d]pyrimidin-2-yl)oxy]ethyl}piperidin-4-yl)methoxy]-1,2-oxazol-5-yl}-3-methylbutanoyl]-4-hydroxy-N-[(1S)-1-[4-(1-methyl-1H-pyrazol-5-yl)phenyl]ethyl]pyrrolidine-2-carboxamide], in that order: 80 to 100% and below 600 nM.
For the compound `C#Cc1c(F)ccc2cc(O)cc(-c3ncc4c(N5CC6CCC(C5)N6)nc(OCCN5CCC(COc6cc([C@@H](C(=O)N7C[C@H](O)C[C@H]7C(=O)N[C@@H](C)c7ccc(-c8ccnn8C)cc7)C(C)C)on6)CC5)nc4c3F)c12` (relative stereo) [Compound 86, (2S,4R)-1-[(2R*)-2-{3-[(1-{2-[(4-{3,8-diazabicyclo[3.2.1]octan-3-yl}-7-(8-ethynyl-7-fluoro-3-hydroxynaphthalen-1-yl)-8-fluoropyrido[4,3-d]pyrimidin-2-yl)oxy]ethyl}piperidin-4-yl)methoxy]-1,2-oxazol-5-yl}-3-methylbutanoyl]-4-hydroxy-N-[(1S)-1-[4-(1-methyl-1H-pyrazol-5-yl)phenyl]ethyl]pyrrolidine-2-carboxamide], the Dmax lay within 80 to 100% and the DC50 lay in the range of 1000 to 3000 nM.
In the same order, the values of `CCc1cccc2cc(O)cc(-c3ncc4c(N5CC6CCC(C5)N6)nc(OCCN5CCC6(CC5)CN(c5cc([C@H](C(=O)N7C[C@H](O)C[C@H]7C(=O)NCc7ccc(-c8scnc8C)cc7)C(C)C)on5)C6)nc4c3F)c12` (relative stereo) [Compound 98, (2S,4R)-1-[(2R*)-2-[3-(7-{2-[(4-{3,8-diazabicyclo[3.2.1]octan-3-yl}-7-(8-ethyl-3-hydroxynaphthalen-1-yl)-8-fluoropyrido[4,3-d]pyrimidin-2-yl)oxy]ethyl}-2,7-diazaspiro[3.5]nonan-2-yl)-1,2-oxazol-5-yl]-3-methylbutanoyl]-4-hydroxy-N-{[4-(4-methyl-1,3-thiazol-5-yl)phenyl]methyl}pyrrolidine-2-carboxamide] are 80 to 100% and below 600 nM.
For the compound `CCc1cccc2cc(O)cc(-c3ncc4c(N5CC6CCC(C5)N6)nc(OCCN5CCC6(CC5)CN(c5cc([C@@H](C(=O)N7C[C@H](O)C[C@H]7C(=O)NCc7ccc(-c8scnc8C)cc7)C(C)C)on5)C6)nc4c3F)c12` (relative stereo) [Compound 99, (2S,4R)-1-[(2R*)-2-[3-(7-{2-[(4-{3,8-diazabicyclo[3.2.1]octan-3-yl}-7-(8-ethyl-3-hydroxynaphthalen-1-yl)-8-fluoropyrido[4,3-d]pyrimidin-2-yl)oxy]ethyl}-2,7-diazaspiro[3.5]nonan-2-yl)-1,2-oxazol-5-yl]-3-methylbutanoyl]-4-hydroxy-N-{[4-(4-methyl-1,3-thiazol-5-yl)phenyl]methyl}pyrrolidine-2-carboxamide], the Dmax is 20 to 60% and the DC50 was above 3000 nM.
On to `CCc1cccc2cc(O)cc(-c3ncc4c(N5CC6CCC(C5)N6)nc(OC[C@@]56CCCN5[C@H](COC(=O)N5CCN(c7cc([C@H](C(=O)N8C[C@H](O)C[C@H]8C(=O)N[C@@H](C)c8ccc(-c9scnc9C)cc8)C(C)C)on7)CC5)CC6)nc4c3F)c12` (relative stereo) [Compound 107, [(3R*,7aR**)-7a-{[(4-{3,8-diazabicyclo[3.2.1]octan-3-yl}-7-(8-ethyl-3-hydroxynaphthalen-1-yl)-8-fluoropyrido[4,3-d]pyrimidin-2-yl)oxy]methyl}-hexahydro-1H-pyrrolizin-3-yl]methyl 4-{5-[(2R***)-1-[(2S,4R)-4-hydroxy-2-{[(1S)-1-[4-(4-methyl-1,3-thiazol-5-yl)phenyl]ethyl]carbamoyl}pyrrolidin-1-yl]-3-methyl-1-oxobutan-2-yl]-1,2-oxazol-3-yl}piperazine-1-carboxylate], for which the Dmax lay in the range of 80 to 100% and the DC50 is below 600 nM.
In turn, `CCc1cccc2cc(O)cc(-c3ncc4c(N5CC6CCC(C5)N6)nc(OC[C@]56CCCN5[C@@H](COC(=O)N5CCN(c7cc([C@H](C(=O)N8C[C@H](O)C[C@H]8C(=O)N[C@@H](C)c8ccc(-c9scnc9C)cc8)C(C)C)on7)CC5)CC6)nc4c3F)c12` (relative stereo) [Compound 110, [(3R*,7aR**)-7a-{[(4-{3,8-diazabicyclo[3.2.1]octan-3-yl}-7-(8-ethyl-3-hydroxynaphthalen-1-yl)-8-fluoropyrido[4,3-d]pyrimidin-2-yl)oxy]methyl}-hexahydro-1H-pyrrolizin-3-yl]methyl 4-{5-[(2R***)-1-[(2S,4R)-4-hydroxy-2-{[(1S)-1-[4-(4-methyl-1,3-thiazol-5-yl)phenyl]ethyl]carbamoyl}pyrrolidin-1-yl]-3-methyl-1-oxobutan-2-yl]-1,2-oxazol-3-yl}piperazine-1-carboxylate] gave a Dmax of 80 to 100% and a half-maximal degradation concentration (DC50) below 600 nM.
In the case of `CCc1cccc2cc(O)cc(-c3ncc4c(N5CC6CCC(C5)N6)nc(OCCN5CCN(c6cc([C@H](C(=O)N7C[C@H](O)C[C@H]7C(=O)N[C@@H](C)c7ccc(-c8scnc8C)cc7)C(C)C)on6)CC5)nc4c3F)c12` (relative stereo) [Compound 134, (2S,4R)-1-[(2R*)-2-[3-(4-{2-[(4-{3,8-diazabicyclo[3.2.1]octan-3-yl}-7-(8-ethyl-3-hydroxynaphthalen-1-yl)-8-fluoropyrido[4,3-d]pyrimidin-2-yl)oxy]ethyl}piperazin-1-yl)-1,2-oxazol-5-yl]-3-methylbutanoyl]-4-hydroxy-N-[(1S)-1-[4-(4-methyl-1,3-thiazol-5-yl)phenyl]ethyl]pyrrolidine-2-carboxamide], the Dmax is 20 to 60% and the DC50 lay within 1000 to 3000 nM.
On to `CCc1cccc2cc(O)cc(-c3ncc4c(N5CC6CCC(C5)N6)nc(OCCN5CCC(N(C)c6cc([C@H](C(=O)N7C[C@H](O)C[C@H]7C(=O)N[C@@H](C)c7ccc(-c8scnc8C)cc7)C(C)C)on6)CC5)nc4c3F)c12` (relative stereo) [Compound 135, (2S,4R)-1-[(2R*)-2-{3-[(1-{2-[(4-{3,8-diazabicyclo[3.2.1]octan-3-yl}-7-(8-ethyl-3-hydroxynaphthalen-1-yl)-8-fluoropyrido[4,3-d]pyrimidin-2-yl)oxy]ethyl}piperidin-4-yl)(methyl)amino]-1,2-oxazol-5-yl}-3-methylbutanoyl]-4-hydroxy-N-[(1S)-1-[4-(4-methyl-1,3-thiazol-5-yl)phenyl]ethyl]pyrrolidine-2-carboxamide], for which the Dmax lay in the range of 80 to 100% and the half-maximal degradation concentration (DC50) was below 600 nM.
On to `CCc1cccc2cc(O)cc(-c3ncc4c(N5CC6CCC(C5)N6)nc(OCCN5CCN(c6cc([C@@H](C(=O)N7C[C@H](O)C[C@H]7C(=O)N[C@@H](C)c7ccc(-c8scnc8C)cc7)C(C)C)on6)CC5)nc4c3F)c12` (relative stereo) [Compound 136, (2S,4R)-1-[(2R*)-2-[3-(4-{2-[(4-{3,8-diazabicyclo[3.2.1]octan-3-yl}-7-(8-ethyl-3-hydroxynaphthalen-1-yl)-8-fluoropyrido[4,3-d]pyrimidin-2-yl)oxy]ethyl}piperazin-1-yl)-1,2-oxazol-5-yl]-3-methylbutanoyl]-4-hydroxy-N-[(1S)-1-[4-(4-methyl-1,3-thiazol-5-yl)phenyl]ethyl]pyrrolidine-2-carboxamide], for which the DC50 was above 3000 nM.
